These are literature values, as cited in patent publication US10941158B2, “Pyrazole ACC inhibitors and uses thereof” (Gilead Apollo, LLC, priority 2015, dated 2021).

Series [1] concerns ACC2. As to conditions: ACC2 isolated from rat, mouse, monkey and human; cited from earlier work.
Series [2] deals with ACC1. As to conditions: ACC1 isolated from rat, mouse, monkey and human; cited from earlier work.

As for `O=C(c1c2ccccc2cc2ccccc12)N1CCC(N2CCC[C@@H](C(=O)N3CCOCC3)C2)CC1` [CP-640186], the IC50 in series [1] and in series [2] was about 60 nM in each case.

The IC50 is the point on the concentration scale where inhibition reaches its midpoint.
